Source: patent EP0484785B1, “Use of xanthines for the preparation of a medicament effective for inhibiting the replication of human retroviruses” (HOECHST-ROUSSEL PHARMACEUTICALS INCORPORATED, priority 1990, dated 1992)
Read-outs that look alike come from different tables or passages of the source.

How the values were obtained:
Jurkat cells = type: cell-based; conditions: human, 7 days
Method: (§1) Human Jurkat cells (a CD4⁺ T-cell lymphoma line) were grown in RPMI-1640 supplemented with 10% fetal calf serum, penicillin, streptomycin and L-glutamine. HIV-1 was produced in Jurkat cells. During the log phase of growth, cell-free supernatant was harvested, tested for RT activity (according to the method of Dayton et al., Cell 1986, 44:941-947) and frozen in aliquots at -70°C until use. Jurkat cells were pretreated with pentoxifylline at various concentrations for 4 hours after which HIV-1 (10⁴ cpm units of RT activity) was added to the cultures. The cells remained in the appropriate concentration of pentoxifylline for a total of 7 days, at which point the RT activity was measured in cell-free supernatants. In parallel, cell viability was tested by trypan blue staining of uninfected Jurkat cells treated for 7 days with various concentrations of pentoxifylline. The results are expressed as a percent of control.

HIV-1 LTR = assay: HIV-1 LTR-mediated gene expression, CAT activity in U38 cells; type: cell-based, human; parameters: CAT activity: unit not given here; conditions: for CAT activity: 2 days
Method: Down-regulation of gene expression mediated by the HIV-1 LTR: U38 cells (Felber BK, Pavlakis GN. Science 1988, 239:184-187) were cultured in the presence or absence of 10 ng/ml phorbol-12-myristate-13-acetate (PMA). U38 cells were derived from the monocytoid human cell line U937 and contain integrated copies of the HIV-1 LTR ligated to the chloramphenicol acetyl transferase (CAT) gene. These cells have been kindly provided by Dr. Barbara Felber (National Cancer Institute, Frederick, Maryland, USA). Two hours later, the cells were washed once in phosphate-buffered saline (PBS) and cultured in the presence of various concentrations of pentoxifylline. After 2 days, cell viability was tested by trypan blue staining, and the activity of CAT was measured as described previously (Sodroski, J. et al., Science 1985, 227:171-173) after standardizing the cell extracts for protein content.

HIV-1 [1] = assay: HIV-1 replication in acutely infected peripheral blood mononuclear cells, reverse transcriptase activity in cell-free supernatants; type: cell-based; conditions: for Reverse Transcriptase (% control): PBM, 4 h pretreatment, 7 days
Method: (§2) Human peripheral blood mononuclear cells (PBM) were obtained by Ficoll-Hypaque gradient centrifugation of blood donated by normal HIV-1 sero-negative individuals. PBM were cultured in RPMI-1640 supplemented with 20% fetal calf serum, penicillin, streptomycin and L-glutamine. After stimulating cells overnight with 15 µg/ml of concanavalin A, they were maintained in 10 units/ml interleukin-2 (IL-2) for the duration of the assay. To test for the inhibition of HIV-1 replication in PBM by pentoxifylline, PBM were pretreated with various concentrations of pentoxifylline for 4 hours after which HIV-1 (10⁴ cpm units of RT activity) was added to the cultures. The cells remained in the appropriate concentrations of the drug for a total of 7 days at which point the RT activity was measured in cell-free supernatants. In parallel, the cytotoxicity was analyzed by trypan blue staining of uninfected PBM treated for 7 days with various concentrations of pentoxifylline. The results are expressed as percent of untreated controls.

HIV-1 [2] = assay: HIV-1 replication in acutely infected Jurkat cells, reverse transcriptase activity in cell-free supernatants; type: cell-based; conditions: for Reverse Transcriptase (% control): Jurkat cells, 4 h pretreatment, 7 days
Method: as §1

[3] = test system: peripheral blood mononuclear cells (PBM); type: cell-based; conditions: human, 7 days
Method: as §2

CC(=O)CCCCn1c(=O)c2c(ncn2C)n(C)c1=O [Pentoxifylline, pentoxifylline]
Cell viability (Jurkat cells): > 95% | CAT activity (HIV-1 LTR; Phorbol ester-non-stimulated, pentoxifylline 50 micromolar): 4.91 | CAT activity (HIV-1 LTR; Phorbol ester-non-stimulated, pentoxifylline 100 micromolar): 3.75 | CAT activity (HIV-1 LTR; Phorbol ester-non-stimulated, pentoxifylline 500 micromolar): 2.95 | CAT activity (HIV-1 LTR; Phorbol ester-non-stimulated, pentoxifylline 1000 micromolar): 2.81 | CAT activity (HIV-1 LTR; Phorbol ester-stimulated (10 ng/ml PMA), pentoxifylline 50 micromolar): 50.4 | CAT activity (HIV-1 LTR; Phorbol ester-stimulated (10 ng/ml PMA), pentoxifylline 100 micromolar): 23.9 | CAT activity (HIV-1 LTR; Phorbol ester-stimulated (10 ng/ml PMA), pentoxifylline 500 micromolar): 20.3 | CAT activity (HIV-1 LTR; Phorbol ester-stimulated (10 ng/ml PMA), pentoxifylline 1000 micromolar): 19.5 | chloramphenicol transacetylase activity (CAT) (HIV-1 LTR; U38 cells, whether or not first pretreated with phorbol ester): decreased | Reverse Transcriptase (% control) (HIV-1 [1]; pentoxifylline 25 micromolar): 75.5 % control | Reverse Transcriptase (% control) (HIV-1 [1]; pentoxifylline 50 micromolar): 72.9 % control | Reverse Transcriptase (% control) (HIV-1 [1]; pentoxifylline 250 micromolar): 30.0 % control | Reverse Transcriptase (% control) (HIV-1 [1]; pentoxifylline 500 micromolar): 22.7 % control | Reverse Transcriptase (% control) (HIV-1 [1]; pentoxifylline 1000 micromolar): 18.6 % control | HIV-1 replication as measured by reverse transcriptase activity (HIV-1 [1]; peripheral blood mononuclear cells acutely infected with HIV-1): decreased | HIV-1 replication as measured by reverse transcriptase activity (HIV-1 [2]; Jurkat cells acutely infected with HIV): decreased | Reverse Transcriptase (% control) (HIV-1 [2]; pentoxifylline 50 micromolar): 84.6 % control | Reverse Transcriptase (% control) (HIV-1 [2]; pentoxifylline 100 micromolar): 72.9 % control | Reverse Transcriptase (% control) (HIV-1 [2]; pentoxifylline 500 micromolar): 69.5 % control | Reverse Transcriptase (% control) (HIV-1 [2]; pentoxifylline 1000 micromolar): 55.0 % control | Viability (% control) ([3]; 50 micromolar): 93.5 % control | Viability (% control) ([3]; 500 micromolar): 84.8 % control | Viability (% control) ([3]; 1000 micromolar): 50.0 % control
